Test results as given in the NIST ThermoML archive (doi:10.1016/j.fluid.2013.03.030).
Numbers after ± are expanded uncertainties.

Legend:
[1] = wn = mass fraction of the nth substance listed; conditions: 298.15 K, 100 kPa, Liquid; for viscosity: Capillary tube (Ostwald / Ubbelohde) method; for mass density: Vibrating tube method
[2] = xn = mol fraction of the nth substance listed; conditions: 298.15 K, 100 kPa, Liquid, Sing-around technique in a fixed-path interferometer
[3] = refractive index (other wavelength) (dimensionless); wn = mass fraction of the nth substance listed; conditions: 298.15 K, 100 kPa, Liquid, Wavelength=589.3 nm, Digital Refractometer Mettler Toledo

SMILES: CCCC[P+](CCCC)(CCCC)CCCC.F[B-](F)(F)F [tetrabutylphosphonium tetrafluoroborate] + O
- viscosity ([1]; w1 = 0.001): 0.901 ± 0.024 mPa·s
- viscosity ([1]; w1 = 0.003): 0.909 ± 0.024 mPa·s
- viscosity ([1]; w1 = 0.005): 0.914 ± 0.024 mPa·s
- mass density ([1]; w1 = 0.001): 997.16 ± 5.4 kg/m3
- mass density ([1]; w1 = 0.003): 998.67 ± 5.4 kg/m3
- mass density ([1]; w1 = 0.005): 1000.05 ± 5.4 kg/m3
- speed of sound ([2]; x1 = 0.001): 1498.9 ± 5.1 m/s
- speed of sound ([2]; x1 = 0.003): 1502.6 ± 5.1 m/s
- speed of sound ([2]; x1 = 0.005): 1507.5 ± 5 m/s
- refractive index ([3]; w1 = 0.001): 1.3326 ± 0.0011
- refractive index ([3]; w1 = 0.003): 1.3333 ± 0.0011
- refractive index ([3]; w1 = 0.005): 1.3341 ± 0.0011
